Data reported in patent US20250011311A1, “AMIDO HETEROAROMATIC COMPOUNDS” (AstraZeneca AB, priority 2022, published 2025).
pIC50: −log10 of the molar value.

Assays:
[1] = biological target: recombinant 17bHSD13 (N2-K300) (Homo sapiens (Human), UniProt Q7Z5P4); test: In Vitro 17bHSD13 Enzyme Assay; format: biochemical; conditions: 80 nM 17bHSD13, 0.5 mM NAD, 20 μM Estradiol, 2.5 h; estradiol to estrone by LC-MS/MS
Description: In Vitro 17bHSD13 Enzyme Assay
The enzyme reaction was initiated by addition, using CERTUS-FLEX dispenser (GYGER), of 20 μl of substrate solution containing NAD (SIGMA, N1511) and Estradiol (SIGMA, E8875). […] Final assay conditions were 80 nM of 17bHSD13, 0.5 mM of NAD, 20 μM Estradiol and various concentrations of compound in buffer (5 mM EDTA (TEKNOVA E0306), 0.01% DDM (AFFYMETRIX D310) in 50 mM Tris-Cl, pH 7.4).
(§1) SCIEX LC-MS/MS system: Sample was injected with CTC analytical injector, SHIMATZU LC pumps LC20 and analyzed on the SCIEX API 5000 LCMSMS system with the following settings. […] The mobile phases consist of A (water with 0.2% formic acid) and B (acetonitrile with 0.2% formic acid). The LC gradient profile is as follows: 50% B during 0 to 0.5 min, a linear increase to 100% B during 0.5 to 1 min, hold at 100% B during 1 to 1.6 min then back to 50% B from 1.6 to 2 min. […] Detection was performed on a API 5000 LC/MS/MS system with a triple quadrupole mass spectrometer, a TURBO V ion source, in multiple reaction monitoring (MRM) mode at positive polarity with APCI probe. […] The dwell times were 100 ms for each transition and a depolarization and collision energy of 100 and 40, respectively. Data from MS signals was using area under curve (AUC). Ratio=Estrone/(Estrone+Estradiol)
(§2) […] […] was used for curve fitting and calculation of IC50 values.
(§3) Compound effect was calculated with the formula below;
(§4) where X represents the effect in the presence of test compound, min is DMSO and max is the maximum inhibition of enzyme using a known inhibitor as control.

[2] = biological target: recombinant 17bHSD4 (M1-N311) (Homo sapiens (Human), UniProt P51659); test: In Vitro 17bHSD4 Enzyme Assay; format: biochemical; conditions: 40 nM 17bHSD4, 0.125 mM NAD, 15 μM Estradiol, 1.5 h; NADH fluorescence; read-out: 17HSD17b4 Enzyme assay IC50
Description: In Vitro 17bHSD4 Enzyme Assay
10 concentration of compounds (0.2 μl) in DMSO was added to GREINER FLUOTRAC 200 384 well plate (781076) using ECHO dispensing (BECKMAN COULTER). 80 nl of 10 mM Estradiol (SIGMA, E8875) was added using Echo dispensing. The enzyme reaction was initiated by addition, using MULTIDROP COMBI dispensing (THERMO FISHER), of 40 μl of a mix containing recombinant 17bHSD4 (M1-N311) and NAD. Final assay conditions were 40 nM of 17bHSD4, 0.125 mM of NAD, 15 μM Estradiol and various concentrations of compound in buffer (5 mM EDTA (TEKNOVA E0306), 0.01% DDM (AFFYMETRIX D310) in 50 mM Tris-Cl, pH 7.4). After each addition plates were centrifuged for 1 min at 150×g (EPPENDORF, 5810R, A-4-81). NADH formation was measured by fluorescence intensity (FI) (Ex360/Em460) at time zero (to) and at 1.5 h (t1) in a PHERASTAR FSX (BMG LABTECH). FI for each sample was calculated as FI at t1 minus FI at t0.
as §2, §3, §4

[3] = biological target: over expressed HSD17β13 in HEK293S cells (Homo sapiens (Human), UniProt Q7Z5P4); test: In Vitro 17bHSD13 Cell Assay; format: cell-based; conditions: HEK293S cells over expressing HSD17β13; estradiol to estrone conversion, 18 h, LC-MS/MS; read-out: 17bHSD1713 Cell assay IC50
Description: In Vitro 17bHSD13 Cell Assay
Inhibition of 17bHSD13 was measured in a cell-based assay with over expressed HSD17β13 in HEK293S cells, measuring estradiol to estrone conversion by LCMS/MS.
Samples were analyzed using LC-MS/MS.
as §1, with “analysed” for “analyzed”
as §2, §3, §4

[4] = biological target: over expressed HSD17β9 in HEK293S cells (Homo sapiens (Human), UniProt Q92781); test: In Vitro 17bHSD9 Cell Assay; format: cell-based; conditions: HEK293S cells over expressing HSD17β9; retinol to retinal conversion, 18 h, LC-MS/MS; read-out: 17bHSD9 Cell assay IC50
Description: In Vitro 17bHSD9 Cell Assay
Inhibition of 17bHSD9 was measured in a cell-based assay with over expressed HSD17β9 in HEK293S cells, measuring retinol to retinal conversion by LCMS/MS.
Cells were plated in 384 well plates (GREINER CELL culture plate 384w black/clear Poly-D-Lysine) at 10 K c/w in 30 μl of culture media (DMEM with GLUTAMAX plus 10% FBS). […] After 18 h of cell culturing for 20 μl of media was transferred using BRAVO dispensing robot (AGILENT) to a GREINER PP 384 well plate (781280) and 40 μl of 50% acetonitrile was added. Samples were analyzed using LC-MS/MS.
SCIEX LC-MS/MS system: Sample was injected with CTC analytical injector, SHIMATZU LC pumps LC20 and analysed on the SCIEX API 5000 LCMSMS system with the following settings. Samples were chromatographed on a WATERS, symmetry, C8, 3.5 μm, 2.1×50 mm) column at constant flow rate of 0.5 mL/min. The mobile phases consists of A (water with 0.2% formic acid) and B (acetonitrile with 0.2% formic acid). The LC gradient profile is as follows: 50% B during 0 to 0.1 min, a linear increase to 100% B during 0.1 to 0.8 min, hold at 100% B during 0.8 to 1.5 min then back to 50% B from 1.5 to 1.6 min and hold during run time. The run time was 2 min with retention times of approximately 1.54 and 1.62 min for Retinol and Retinal, respectively. Detection was performed on a API 5000 LC/MS/MS system with a triple quadrupole mass spectrometer, a TURBO V ion source, in multiple reaction monitoring (MRM) mode at positive polarity with ESI probe. The MRM pairs were m/z 269.3 to m/z 93.0 and m/z 285.2 to 161.0. for Retinol and Retinal, respectively. The dwell times were 100 ms for each transition and a depolarization and collision energy of 50 and 25, respectively. Data from MS signals was using area under curve (AUC). Ratio=Retinal/(Retinal+Retinol).
as §2, §3, §4

Chain of over expressed HSD17β13 in HEK293S cells (Q7Z5P4 20-300): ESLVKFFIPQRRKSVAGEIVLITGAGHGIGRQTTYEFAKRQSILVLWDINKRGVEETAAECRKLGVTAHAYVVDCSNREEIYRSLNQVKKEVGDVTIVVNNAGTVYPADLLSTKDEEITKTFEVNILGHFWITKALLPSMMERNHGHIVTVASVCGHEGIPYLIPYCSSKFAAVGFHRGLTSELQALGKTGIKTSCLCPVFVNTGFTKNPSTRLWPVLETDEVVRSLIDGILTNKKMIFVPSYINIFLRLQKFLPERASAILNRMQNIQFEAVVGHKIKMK
Chain of recombinant 17bHSD4 (M1-N311) (P51659 1-311): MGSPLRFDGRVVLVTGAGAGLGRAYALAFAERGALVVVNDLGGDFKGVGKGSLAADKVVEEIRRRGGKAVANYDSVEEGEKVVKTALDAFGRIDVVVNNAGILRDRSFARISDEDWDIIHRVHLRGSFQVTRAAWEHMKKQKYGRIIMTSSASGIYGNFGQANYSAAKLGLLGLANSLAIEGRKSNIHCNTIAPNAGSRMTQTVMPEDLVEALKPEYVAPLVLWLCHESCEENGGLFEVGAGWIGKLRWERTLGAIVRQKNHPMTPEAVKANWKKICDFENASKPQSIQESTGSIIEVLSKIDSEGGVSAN
Chain of recombinant 17bHSD13 (N2-K300) (Q7Z5P4 2-300): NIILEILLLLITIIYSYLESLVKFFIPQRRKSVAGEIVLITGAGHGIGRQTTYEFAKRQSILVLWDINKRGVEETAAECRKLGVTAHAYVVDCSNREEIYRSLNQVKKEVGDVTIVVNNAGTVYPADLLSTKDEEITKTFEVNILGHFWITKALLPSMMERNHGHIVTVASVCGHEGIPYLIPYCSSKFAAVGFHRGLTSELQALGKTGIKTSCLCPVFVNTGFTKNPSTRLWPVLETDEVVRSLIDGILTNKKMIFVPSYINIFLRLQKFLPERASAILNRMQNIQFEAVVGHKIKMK
Chain of over expressed HSD17β9 in HEK293S cells (Q92781 whole entry): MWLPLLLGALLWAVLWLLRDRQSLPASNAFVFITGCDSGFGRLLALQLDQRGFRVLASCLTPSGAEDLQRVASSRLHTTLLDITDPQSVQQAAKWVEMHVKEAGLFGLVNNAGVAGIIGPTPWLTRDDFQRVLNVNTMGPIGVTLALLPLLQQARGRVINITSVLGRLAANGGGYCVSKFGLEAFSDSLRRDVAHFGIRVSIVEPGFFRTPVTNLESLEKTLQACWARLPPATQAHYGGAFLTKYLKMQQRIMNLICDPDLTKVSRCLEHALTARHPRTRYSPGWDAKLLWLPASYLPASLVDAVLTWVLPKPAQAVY

| Structure (SMILES) | pIC50 [1] | pIC50 [2] | pIC50 [3] | pIC50 [4] |
| --- | --- | --- | --- | --- |
| O=C(c1noc(-c2cc(F)c(F)c(O)c2F)n1)N1CCCCC1 [Example 44, Piperidin-1-yl(5-(2,4,5-trifluoro-3-hydroxyphenyl)-1,2,4-oxadiazol-3-yl)methanone] | 6.36 | 4.42 | 6.72 | 4.95 |
| COc1ccc(OC2CCN(C(=O)c3noc(-c4cc(F)c(F)c(O)c4F)c3C#N)CC2)nc1 [Example 25, 3-(4-((5-Methoxypyridin-2-yl)oxy)piperidine-1-carbonyl)-5-(2,4,5-trifluoro-3-hydroxyphenyl)isoxazole-4-carbonitrile] | 6.54 | 4.61 | 6.09 | 4.64 |
| O=C(c1noc(-c2cc(F)c(F)c(O)c2F)n1)N1CCN(c2nc3ccccc3o2)CC1 [Example 72, (4-(Benzo[d]oxazol-2-yl)piperazin-1-yl)(5-(2,4,5-trifluoro-3-hydroxyphenyl)-1,2,4-oxadiazol-3-yl)methanone] | 7.21 | 4.72 | 5.95 | < 4.30 |
| O=C(c1noc(-c2cc(F)c(F)c(O)c2F)n1)N1CCO[C@@H](CF)C1 [Example 49, (R)-(2-(Fluoromethyl)morpholino)(5-(2,4,5-trifluoro-3-hydroxyphenyl)-1,2,4-oxadiazol-3-yl)methanone] | 5.78 | < 4.30 | 6.27 | < 4.30 |
| N#Cc1c(C(=O)N2CCN(c3nc4ccccc4o3)CC2)noc1-c1cc(F)c(F)c(O)c1F [Example 23, 3-(4-(Benzo[d]oxazol-2-yl)piperazine-1-carbonyl)-5-(2,4,5-trifluoro-3-hydroxyphenyl)isoxazole-4-carbonitrile] | 6.85 | 4.47 | 6.03 | < 4.30 |
| O=C(c1noc(-c2cc(F)c(F)c(O)c2F)n1)N1CCc2ccccc2C1 [Example 64, (3,4-Dihydroisoquinolin-2(1H)-yl)(5-(2,4,5-trifluoro-3-hydroxyphenyl)-1,2,4-oxadiazol-3-yl)methanone] | 7.32 | 5.25 | 6.57 | 4.95 |
| N#Cc1cccc(C2CN(C(=O)c3noc(-c4cc(F)c(F)c(O)c4F)n3)CCN2)c1 (stereo not drawn) [Example 42, 3-(4-(5-(2,4,5-Trifluoro-3-hydroxyphenyl)-1,2,4-oxadiazole-3-carbonyl)piperazin-2-yl)benzonitrile] | 6.04 | < 4.30 | 5.00 | < 4.30 |
| O=C(c1cc(-c2cc(F)c(F)c(O)c2F)on1)N1CC[C@H](c2ccc(Cl)cc2)C1 [Example 8, (R)-(3-(4-Chlorophenyl)pyrrolidin-1-yl)(5-(2,4,5-trifluoro-3-hydroxyphenyl)isoxazol-3-yl)methanone] | 7.33 | 5.17 | 6.21 | 4.60 |
| O=C(c1noc(-c2cc(F)c(F)c(O)c2F)n1)N1CCSCC1 [Example 40, Thiomorpholino(5-(2,4,5-trifluoro-3-hydroxyphenyl)-1,2,4-oxadiazol-3-yl)methanone] | 6.15 | < 4.30 | 5.84 | < 4.30 |
| CC[C@H]1CN(C(=O)c2noc(-c3cc(F)c(F)c(O)c3F)n2)CC(=O)N1 [Example 34, (S)-6-Ethyl-4-(5-(2,4,5-trifluoro-3-hydroxyphenyl)-1,2,4-oxadiazole-3-carbonyl)piperazin-2-one] | 6.24 | < 4.30 | < 4.30 | < 4.30 |
| C[C@@H]1COC[C@H](C)N1C(=O)c1noc(-c2cc(F)c(F)c(O)c2F)n1 [Example 36, ((3R,5S)-3,5-Dimethylmorpholino)(5-(2,4,5-trifluoro-3-hydroxyphenyl)-1,2,4-oxadiazol-3-yl)methanone] | 5.99 | < 4.30 | 5.88 | < 4.30 |
| O=C(c1noc(-c2cc(F)c(F)c(O)c2F)n1)N1CCOCC1 [Example 39, Morpholino(5-(2,4,5-trifluoro-3-hydroxyphenyl)-1,2,4-oxadiazol-3-yl)methanone] | 5.76 | < 4.30 | 5.83 | < 4.30 |
| N#Cc1c(C(=O)N2CCC(c3ccccc3)C2)noc1-c1ccc(F)c(O)c1 (stereo not drawn) [Example 13, 5-(4-Fluoro-3-hydroxyphenyl)-3-(3-phenylpyrrolidine-1-carbonyl)isoxazole-4-carbonitrile] | 7.40 | 4.81 | 6.34 |  |
| O=C(c1cc(-c2cc(F)c(F)c(O)c2F)on1)N1CC[C@H](c2ccccc2)C1 [Example 104, (R)-(3-Phenylpyrrolidin-1-yl)(5-(2,4,5-trifluoro-3-hydroxyphenyl)isoxazol-3-yl)methanone] | 7.24 | 5.02 | 6.27 |  |
| O=C(c1nnc(-c2ccc(F)c(O)c2)o1)N1CC[C@H](c2ccccc2)C1 [Example 1, (R)-(5-(4-Fluoro-3-hydroxyphenyl)-1,3,4-oxadiazol-2-yl)(3-phenylpyrrolidin-1-yl)methanone] | 6.51 | 4.49 | 6.12 |  |
